{
  "source": "BindingDB's records for doi:10.1016/j.ejmech.2019.111807",
  "about": "(Universitat De Barcelona, 2020)",
  "experiment": "Bioactivation in CYP1A1 (unknown origin) transfected CHO cells assessed as CYP1A1-mediated drug activation by measuring reduction in cell viability",
  "data": [
    {"smiles": "CCCCCCc1c2c(c(C)c3c1C(=O)OC3)Oc1ccccc1O2", "values": [
      {"measurement": "IC50", "result": 2.6, "unit": "µM"}
    ]},
    {"smiles": "CCCCc1c2c(c(C)c3c1C(=O)OC3)Oc1ccccc1O2", "values": [
      {"measurement": "IC50", "result": 0.4, "unit": "µM"}
    ]}
  ]
}
